Read-outs that look alike come from different tables or passages of the source. One block for each compound: values may come before it.
Tested on: AsPC-1 cells
Test: phospho-ERK HTRF assay in AsPC-1 cells, 4 h treatment
Type: cell-based
Settings: Homo sapiens, ASPC1
[1] = AsPC-1, 4h, Table 1b, read-out: PERK IC50 (AsPC-1, 4h)
[2] = AsPC-1, 4H, Table 1a class column, read-out: pERK IC50 activity range (*)
[3] = AsPC-1, 4H, Table 1a, read-out: PERK IC50 (AsPC-1, 4H)

Compound: C[C@@]1(O)COCCN(c2nc(OC[C@]34CCCN3C[C@@H](C=C(F)F)C4)nc3c2CO[C@H](c2cc(N)cc(Cl)c2C(F)(F)F)C3)C1 [compound 457]
IC50 [1]: < 0.01 µM

Compound: CN(C)C(=O)c1nn2c(c1Cl)CN(c1nc(OC[C@@]34CCCN3C[C@H](F)C4)nc3c1COC(c1c(C(F)(F)F)ccc(N)c1F)C3)CC1(COC1)C2 (some centres unmarked) [compound 222]
IC50 [2]: > 0.5 µM
IC50 [3]: > 10 µM

Compound: Nc1cc(Cl)c(C(F)(F)F)c([C@@H]2Cc3nc(OC[C@@]45CCCN4C/C(=C\F)C5)nc(N4CCCn5nc(C(=O)N6CCCC6)c(Cl)c5C4)c3CO2)c1 [compound 422]
IC50 [1]: < 0.01 µM

IC50 [2]: 0.01 to 0.03 µM
Compound: CON(C)C(=O)c1nn2c(c1Cl)CN(c1nc(OC[C@@]34CCCN3C[C@H](F)C4)nc3c1COC(c1c(F)c(N)cc(C)c1C(F)(F)F)C3)CCC2 (stereo partly drawn) [compound 464, 5-(2-{[(2R,7aS)-2-fluoro-hexahydropyrrolizin-7a-yl]methoxy}-7-[3-amino-2-fluoro-5-methyl-6-(trifluoromethyl)phenyl]-5H,7H,8H-pyrano[4,3-d]pyrimidin-4-yl)-3-chloro-N-methoxy-N-methyl-4H,6H,7H,8H-pyrazolo[1,5-a][1,4]diazepine-2-carboxamide]

Compound: CN(C)C(=S)c1nn2c(c1Cl)CN(c1nc(OC[C@@]34CCCN3C[C@H](F)C4)nc3c1CO[C@H](c1c(C(F)(F)F)ccc(N)c1F)C3)CCC2 [compound 223]
IC50 [2]: 0.101 to 0.5 µM
IC50 [3]: 0.147 µM

Compound: CC#Cc1cc(N)cc([C@@H]2Cc3nc(OC[C@@]45CCCN4C/C(=C\F)C5)nc(N4CCCn5nc(C(=O)N(C)C)c(C)c5C4)c3CO2)c1C(F)(F)F [compound 426]
IC50 [1]: < 0.01 µM

Compound: CN(C)C(=O)c1nn2c(c1Cl)CN(c1nc(OC[C@@]34CCCN3C[C@H](F)C4)nc3c1CO[C@H](c1c(C(F)(F)F)cc(F)c(N)c1F)C3)CCC2 [216a, 5-((S)-7-(3-amino-2,4-difluoro-6-(trifluoromethyl)phenyl)-2-(((2R,7aS)-2-fluorotetrahydro-1H-pyrrolizin-7a(5H)-yl)methoxy)-7,8-dihydro-5H-pyrano[4,3-d]pyrimidin-4-yl)-3-chloro-N,N-dimethyl-5,6,7,8-tetrahydro-4H-pyrazolo[1,5-a][1,4]diazepine-2-carboxamide]
IC50 [2]: 0.031 to 0.1 µM
IC50 [3]: 0.049 µM

Compound: CN(C)C(=O)c1nc2c(o1)CCCN(c1nc(OC[C@@]34CCCN3C[C@H](F)C4)nc3c1COC(c1c(C(F)(F)F)ccc(N)c1F)C3)C2 (some centres unmarked) [compound 208]
IC50 [2]: > 0.5 µM
IC50 [3]: 1.44 µM

Compound: Cc1cc(N)c(F)c([C@@H]2Cc3nc(OC[C@@]45CCCN4C[C@H](F)C5)nc(N4CCCn5nc(C(=O)N(C)C)c(Cl)c5C4)c3CO2)c1C(F)(F)F [215a, 5-((S)-7-(3-amino-2-fluoro-5-methyl-6-(trifluoromethyl)phenyl)-2-(((2R,7aS)-2-fluorotetrahydro-1H-pyrrolizin-7a(5H)-yl)methoxy)-7,8-dihydro-5H-pyrano[4,3-d]pyrimidin-4-yl)-3-chloro-N,N-dimethyl-5,6,7,8-tetrahydro-4H-pyrazolo[1,5-a][1,4]diazepine-2-carboxamide]
IC50 [1]: < 0.01 µM

Compound: CON(C)C(=O)c1nn2c(c1Cl)CN(c1nc(OC[C@@]34CCCN3C/C(=C\F)C4)nc3c1COC(c1cc(N)cc(Cl)c1C(F)(F)F)C3)CCC2 (some centres unmarked) [compound 449]
IC50 [1]: < 0.01 µM

Compound: CN1CCN(c2nc(OC[C@@]34CCCN3C[C@H](F)C4)nc3c2COC(c2c(C(F)(F)F)ccc(N)c2F)C3)CCC1=O (some centres unmarked) [compound 201]
IC50 [2]: > 0.5 µM
IC50 [3]: > 10 µM

Compound: CON(C)C(=O)c1nn2c(c1C)CN(c1nc(OC[C@@]34CCCN3C/C(=C\F)C4)nc3c1COC(c1cc(N)cc(Cl)c1C(F)(F)F)C3)CCC2 (stereo partly drawn) [compound 450, 5-(7-(5-amino-3-chloro-2-(trifluoromethyl)phenyl)-2-(((S,Z)-2-(fluoromethylene)tetrahydro-1H-pyrrolizin-7a(5H)-yl)methoxy)-7,8-dihydro-5H-pyrano[4,3-d]pyrimidin-4-yl)-N-methoxy-N,3-dimethyl-5,6,7,8-tetrahydro-4H-pyrazolo[1,5-a][1,4]diazepine-2-carboxamide]
IC50 [2]: 0.01 to 0.03 µM

Compound: Cc1c(C(=O)N(C)C)nn2c1CN(c1nc(OC[C@@]34CCCN3C/C(=C\F)C4)nc3c1CO[C@H](c1cc(N)cc(F)c1C(F)(F)F)C3)CCC2 [compound 417]
IC50 [1]: < 0.01 µM

Compound: Cc1cc(N)cc(C2Cc3nc(OC[C@@]45CCCN4C[C@H](F)C5)nc(N4CCCn5nc(C(=O)N(C)C)c(Cl)c5C4)c3CO2)c1C(F)(F)F (some centres unmarked) [compound 239]
IC50 [2]: 0.01 to 0.03 µM
IC50 [3]: 0.0128 µM

Compound: CN(C)C(=O)c1nn2c(c1Cl)CN(c1nc(OC[C@@]34CCCN3C/C(=C\F)C4)nc3c1COC(c1c(C(F)(F)F)ccc(N)c1F)C3)CCC2 (stereo partly drawn) [compound 233, 5-(7-(3-amino-2-fluoro-6-(trifluoromethyl)phenyl)-2-(((S,Z)-2-(fluoromethylene)tetrahydro-1H-pyrrolizin-7a(5H)-yl)methoxy)-7,8-dihydro-5H-pyrano[4,3-d]pyrimidin-4-yl)-3-chloro-N,N-dimethyl-5,6,7,8-tetrahydro-4H-pyrazolo[1,5-a][1,4]diazepine-2-carboxamide]
IC50 [2]: 0.01 to 0.03 µM
IC50 [3]: 0.03 µM

Compound: CN(C)C(=O)c1nn2c(c1Cl)CN(c1nc(OC[C@@]34CCCN3C/C(=C\F)C4)nc3c1CO[C@H](c1cc(N)cc(Cl)c1C1CC1)C3)CCC2 [compound 439]
IC50 [1]: < 0.01 µM

Compound: CN(C)C(=O)c1nn2c(c1Cl)CN(c1nc(OC[C@@]34CCCN3C/C(=C\F)C4)nc3c1CO[C@H](c1c(F)c(N)cc(Cl)c1Cl)C3)CCC2 [compound 436]
IC50 [1]: < 0.01 µM

Compound: CN(C)C(=O)c1nn2c(c1Cl)CN(c1nc(OC[C@@]34CCCN3CC(=C(F)F)C4)nc3c1CO[C@H](c1c(F)c(N)cc(Cl)c1C(F)(F)F)C3)CCC2 [248a, 5-((S)-7-(3-amino-5-chloro-2-fluoro-6-(trifluoromethyl)phenyl)-2-(((S)-2-(difluoromethylene)tetrahydro-1H-pyrrolizin-7a(5H)-yl)methoxy)-7,8-dihydro-5H-pyrano[4,3-d]pyrimidin-4-yl)-3-chloro-N,N-dimethyl-5,6,7,8-tetrahydro-4H-pyrazolo[1,5-a][1,4]diazepine-2-carboxamide]
IC50 [1]: < 0.01 µM

Compound: CN1CCOc2c(nn3c2CN(c2nc(OC[C@@]45CCCN4C[C@H](F)C5)nc4c2CO[C@H](c2c(C(F)(F)F)ccc(N)c2F)C4)CCC3)C1=O [212a, 11-((S)-7-(3-amino-2-fluoro-6-(trifluoromethyl)phenyl)-2-(((2R,7aS)-2-fluorotetrahydro-1H-pyrrolizin-7a(5H)-yl)methoxy)-7,8-dihydro-5H-pyrano[4,3-d]pyrimidin-4-yl)-4-methyl-3,4,9,10,11,12-hexahydro-8H-[1,4]diazepino[1′,2′:1,5]pyrazolo[3,4-f][1,4]oxazepin-5(2H)-one]
IC50 [2]: > 0.5 µM
IC50 [3]: 0.81 µM

Compound: CC#Cc1cc(N)cc([C@@H]2Cc3nc(OC[C@@]45CCCN4C[C@H](F)C5)nc(N4CCCn5nc(C(=O)N(C)C)c(CC)c5C4)c3CO2)c1C(F)(F)F [compound 423]
IC50 [1]: < 0.01 µM

Compound: CN(C)C(=O)c1cc2n(n1)CCCN(c1nc(OC[C@@]34CCCN3CC(=C(F)F)C4)nc3c1CO[C@H](c1cc(N)cc(Cl)c1C(F)(F)F)C3)C2 [compound 411]
IC50 [1]: < 0.01 µM

Compound: CN(C)C(=O)c1nn2c(c1Cl)CN(c1nc(OC[C@]34CCCN3C[C@@H](C=C(F)F)C4)nc3c1CO[C@H](c1c(F)c(N)cc(Cl)c1C(F)(F)F)C3)CCC2 [compound 459]
IC50 [1]: < 0.01 µM

Compound: Cc1c(C(=O)N(C)C)nn2c1CN(c1nc(OC[C@]34CCCN3C[C@@H](C=C(F)F)C4)nc3c1CO[C@H](c1c(F)c(N)cc(Cl)c1C(F)(F)F)C3)CCC2 [compound 458]
IC50 [1]: < 0.01 µM

Compound: CN(C)C(=O)c1nn2c(c1Cl)CN(c1nc(OC[C@@]34CCCN3C[C@H](F)C4)nc3c1COC(c1cc(N)ccc1C(F)(F)F)C3)CCC2 (stereo in doubt) [230b, 5-((R)-7-(5-amino-2-(trifluoromethyl)phenyl)-2-(((2R,7aS)-2-fluorotetrahydro-1H-pyrrolizin-7a(5H)-yl)methoxy)-7,8-dihydro-5H-pyrano[4,3-d]pyrimidin-4-yl)-3-chloro-N,N-dimethyl-5,6,7,8-tetrahydro-4H-pyrazolo[1,5-a][1,4]diazepine-2-carboxamide]
IC50 [2]: 0.031 to 0.1 µM
IC50 [3]: 0.013 µM

Compound: CC#Cc1cc(N)cc([C@@H]2Cc3nc(OC[C@@]45CCCN4C/C(=C\F)C5)nc(N4CCCn5nc(C(=O)N6CCCC6)cc5C4)c3CO2)c1C(F)(F)F [compound 420]
IC50 [1]: < 0.01 µM

Compound: CN(C)C(=O)c1nn2c(c1Cl)CN(c1nc(OC[C@@]34CCCN3CC(=C(F)F)C4)nc3c1CO[C@@H](c1c(F)c(N)cc(Cl)c1C(F)(F)F)C3)CCC2 [248b, 5-((R)-7-(3-amino-5-chloro-2-fluoro-6-(trifluoromethyl)phenyl)-2-(((S)-2-(difluoromethylene)tetrahydro-1H-pyrrolizin-7a(5H)-yl)methoxy)-7,8-dihydro-5H-pyrano[4,3-d]pyrimidin-4-yl)-3-chloro-N,N-dimethyl-5,6,7,8-tetrahydro-4H-pyrazolo[1,5-a][1,4]diazepine-2-carboxamide]
IC50 [2]: > 0.5 µM
IC50 [3]: > 2.5 µM

Compound: CN(C)C(=O)c1nn2c(c1Cl)CN(c1nc(OC[C@@]34CCCN3C/C(=C\F)C4)nc3c1CO[C@H](c1cc(N)ccc1C(F)(F)F)C3)CCC2 [compound 243]
IC50 [2]: 0.01 to 0.03 µM
IC50 [3]: 0.0107 µM

Compound: CON(C)C(=O)c1nn2c(c1Cl)CN(c1nc(OC[C@@]34CCCN3CC(=C(F)F)C4)nc3c1COC(c1c(F)c(N)cc(Cl)c1C(F)(F)F)C3)CCC2 (some centres unmarked) [compound 454]
IC50 [2]: 0.01 to 0.03 µM

Compound: CN(C)C(=O)c1nn2c(c1Cl)CN(c1nc(OC[C@@]34CCCN3CC(=C(F)F)C4)nc3c1CO[C@H](c1cc(N)ccc1C(F)(F)F)C3)CCC2 [compound 244]
IC50 [2]: 0.01 to 0.03 µM
IC50 [3]: 0.0222 µM

Compound: CC#Cc1cc(N)c(F)c([C@@H]2Cc3nc(OC[C@@]45CCCN4C[C@H](F)C5)nc(N4CCCn5nc(C(=O)N(C)C)c(Cl)c5C4)c3CO2)c1C(F)(F)F [compound 435]
IC50 [1]: < 0.01 µM

Compound: CCc1c(C(=O)N(C)C)nn2c1CN(c1nc(OC[C@@]34CCCN3C/C(=C\F)C4)nc3c1CO[C@H](c1cc(N)cc(Cl)c1C(F)(F)F)C3)CCC2 [compound 425]
IC50 [1]: < 0.01 µM

Compound: CC#Cc1cc(N)cc([C@@H]2Cc3nc(OC[C@@]45CCCN4C/C(=C\F)C5)nc(N4CCCn5nc(C(=O)N(C)C)c(CC)c5C4)c3CO2)c1C(F)(F)F [compound 424]
IC50 [1]: < 0.01 µM

Reference: patent US20260224589A1 (priority 2023, published 2026)
